The results in this text go back to patent publication US9290536B2, “C4 monomethyl triterpenoid derivatives and methods of use thereof” (Reata Pharmaceuticals, Inc., priority 2011, dated 2016).

Assay [1] relates to IFNγ-induced NO production in RAW264.7. In words: Suppression of IFNγ-induced NO production in RAW264.7 mouse macrophages (Griess reagent, normalized to WST-1 cell viability). The class given is cell-based. Particulars: RAW264.7 cells, 2 h pre-treatment with drug (0-200 nM), then IFNγ for 24 h. As to the method:
Nitric Oxide Production and Cell Viability. […] On the next day, cells were pre-treated with DMSO or drug (0-200 nM dose range) for 2 hours, and then treated with recombinant mouse IFNγ (R&D Systems) for 24 hours. Nitric Oxide concentration in media was determined using the Griess reagent system (Promega). Cell viability was determined using WST-1 reagent (Roche). IC50 values were determined based on the suppression of IFNγ induced Nitric Oxide production normalized to cell viability.

A further assay deals with NQO1-ARE. Kind of assay: NQO1-ARE luciferase reporter assay in HuH7 cells (Nrf2 transcriptional activity). It is filed as cell-based. Particulars: Homo sapiens, Huh-7, 62.5 nM compound, 18 h, Firefly normalized to Renilla, over DMSO vehicle control. The text has this:
NQO1-ARE Luciferase Reporter Assay.
This assay allows for quantitative assessment of the endogenous activity of the Nrf2 transcription factor in cultured mammalian cells. Expression of Firefly luciferase from NQO1-ARE luciferase reporter plasmid is controlled by binding of Nrf2 to a specific enhancer sequence corresponding to the antioxidant response element (ARE) that was identified in the promoter region of the human NADPH:quinone oxidoreductase 1 (NQO1) gene (Xie et al., 1995). The plasmid was constructed by inserting a sequence:
encompassing the human NQO1-ARE into the pLuc-MCS vector using HindIII/XhoI cloning sites (GenScript Corp., Piscataway, N.J.). The assay is performed in HuH7 cells maintained in DMEM (Invitrogen) supplemented with 10% FBS and 100 U/ml (each) of penicillin and streptomycin. For the assay, cells are plated in 96-well plates at 17,000 cells per well. Twenty four hours later, the cells are co-transfected with 50 ng each of NQO1-ARE reporter plasmid and pRL-TK plasmid using Lipofectamine 2000 transfection reagent (Invitrogen). pRL-TK plasmid constitutively expresses Renilla luciferase and is used as an internal control for normalization of transfection levels. Thirty hours after transfection, the cells are treated with compounds (at concentrations ranging from 0 to 1 μM) for eighteen hours. Firefly and Renilla luciferase activity is assayed by Dual-Glo Luciferase Assay (Promega Corp., Madison, Wis.), the luminescence signal is measured on an L-Max II luminometer (Molecular Devices). Firefly luciferase activity is normalized to the Renilla activity, and fold induction over a vehicle control (DMSO) of normalized Firefly activity is calculated. The fold induction at 62.5 nM concentration is used for comparing relative potencies of compounds to induce Nrf2 transcriptional activity. See Xie et al., 1995, which is incorporated herein by reference.
Background: In a reporter assay the amount or activity of a reporter protein is the signal.

Broadly, the IC50 is the concentration needed to halve the response being measured. Usually fold induction stands for the ratio of treated to control signal. A higher fold induction goes with a large rise in signal. `C[C@@H]1C(=O)C(C#N)=C[C@]2(C)C3=CC(=O)[C@]45OC(=O)[C@@]6(CCC(C)(C)C[C@H]64)CC[C@@]5(C)[C@]3(C)CC[C@@H]12` [TX63555]: in assay [1], the IC50 turned out to be 1.4 nM. The compound further had a fold induction at 0.0625 µM in the assay on NQO1-ARE of 6.1. For `C[C@@H]1C(=O)C(C#N)=C[C@]2(C)C3=CC(=O)[C@@H]4[C@@H]5CC(C)(C)CC[C@]5(C(=O)O)CC[C@@]4(C)[C@]3(C)CC[C@@H]12` [TX63520], in that order: 10.1 nM and 5.3.

As for `COC(=O)[C@]12CCC(C)(C)C[C@H]1[C@H]1C(=O)C[C@@H]3[C@@]4(C)C=C(C#N)C(=O)[C@@H](C)[C@@H]4CC[C@@]3(C)[C@]1(C)CC2` [TX63749], in assay [1], the IC50 came to 3 nM. This compound gave a fold induction at 0.0625 µM in the assay on NQO1-ARE of 2.3.

Turning to `C[C@@H]1C(=O)C(C#N)=C[C@]2(C)C3=CC(=O)[C@@H]4[C@@H]5CC(C)(C)CC[C@]5(CO)CC[C@@]4(C)[C@]3(C)CC[C@@H]12` [TX63545], in assay [1], the IC50 is 0.7 nM. Also, the fold induction at 0.0625 µM in the assay on NQO1-ARE was 7.2. For `C[C@@H]1C(=O)C(C#N)=C[C@]2(C)C3=CC(=O)[C@@H]4[C@@H]5CC(C)(C)CC[C@]5(C(=O)NCC(F)(F)F)CC[C@@]4(C)[C@]3(C)CC[C@@H]12` [TX63523], in that order: 1 nM and 5.6. For `C[C@@H]1C(=O)C(C#N)=C[C@]2(C)C3=CC(=O)[C@@H]4[C@@H]5CC(C)(C)CC[C@]5(NC(=O)C(C)(F)F)CC[C@@]4(C)[C@]3(C)CC[C@@H]12` [TX63682], in that order: 1.1 nM and 5.7. For `C[C@@H]1C(=O)C(C#N)=C[C@]2(C)C3=CC(=O)[C@@H]4[C@@H]5CC(C)(C)CC[C@]5(C(=O)n5ccnc5)CC[C@@]4(C)[C@]3(C)CC[C@@H]12` [TX63522], in that order: 0.4 nM and 4.1. For the compound `C[C@@H]1C(=O)C(C#N)=C[C@]2(C)C3=CC(=O)[C@@H]4[C@@H]5CC(C)(C)CC[C@]5(NC(=O)C5CCC5)CC[C@@]4(C)[C@]3(C)CC[C@@H]12` [TX63863], the IC50 in assay [1] came to 1.8 nM. Same read-out and setting: the value for `COC(=O)[C@]12CCC(C)(C)C[C@H]1[C@H]1C(=O)C=C3[C@@]4(C)C=C(C#N)C(=O)C(C)=C4CC[C@@]3(C)[C@]1(C)CC2` [TX63448] was 75 nM; that for `C[C@@H]1C(=O)C(C#N)=C[C@]2(C)C3=CC(=O)[C@@H]4[C@@H]5CC(C)(C)CC[C@]5(O)CC[C@@]4(C)[C@]3(C)CC[C@@H]12` [TX63925] was 0.4 nM; that for `COC(=O)[C@]12CCC(C)(C)C[C@H]1[C@@]1(O)C(=O)C=C3[C@@]4(C)C=C(C#N)C(=O)[C@@H](C)[C@@H]4CC[C@@]3(C)[C@]1(C)CC2` [TX63870] was 1.1 nM.

Turning to `C[C@@H]1C(=O)C(C#N)=C[C@]2(C)[C@H]3CC(=O)[C@@H]4[C@@H]5CC(C)(C)CC[C@]5(C(=O)N5CCOCC5)CC[C@@]4(C)[C@]3(C)CC[C@@H]12` [TX63812], the IC50 in assay [1] was 10.1 nM. Still for that read-out and setting: the value for `COCc1nnc([C@]23CCC(C)(C)C[C@H]2[C@H]2C(=O)C=C4[C@@]5(C)C=C(C#N)C(=O)[C@@H](C)[C@@H]5CC[C@@]4(C)[C@]2(C)CC3)o1` [TX63790] was 1.1 nM; that for `COC(=O)[C@]12CCC(C)(C)C[C@H]1[C@H]1C(=O)C=C3[C@@]4(C)C=C(C#N)C(=O)C[C@@H]4CC[C@@]3(C)[C@]1(C)CC2` [TX63614] was 11.7 nM. As for `Cc1nnc([C@]23CCC(C)(C)C[C@H]2[C@H]2C(=O)C=C4[C@@]5(C)C=C(C#N)C(=O)[C@@H](C)[C@@H]5CC[C@@]4(C)[C@]2(C)CC3)o1` [TX63616], in assay [1], the IC50 is 0.7 nM. In addition, in the assay with NQO1-ARE, the fold induction at 0.0625 µM was found to be 4.4. As to `C[C@@H]1C(=O)C(C#N)=C[C@]2(C)C3=CC(=O)[C@@H]4[C@@H]5CC(C)(C)CC[C@]5(COC(=O)CNC(=O)OC(C)(C)C)CC[C@@]4(C)[C@]3(C)CC[C@@H]12` [TX63716], the IC50 in assay [1] came out at 3.2 nM.

On to `C[C@@H]1C(=O)C(C#N)=C[C@]2(C)C3=CC(=O)[C@@H]4[C@@H]5CC(C)(C)CC[C@]5(C(N)=O)CC[C@@]4(C)[C@]3(C)CC[C@@H]12` [TX63557], for which, in assay [1], the IC50 worked out at 2.2 nM.

Turning to `C[C@@H]1C(=O)C(C#N)=C[C@]2(C)C3=CC(=O)[C@@H]4[C@@H]5CC(C)(C)CC[C@]5(CCC(=O)N5CCC5)CC[C@@]4(C)[C@]3(C)CC[C@@H]12` [TX63889], the IC50 in assay [1] worked out at 0.4 nM. Still for that read-out and setting: the value for `C=C1C(=O)C(C#N)=C[C@]2(C)C3=CC(=O)[C@@H]4[C@@H]5CC(C)(C)CC[C@]5(C(=O)OC)CC[C@@]4(C)[C@]3(C)CC[C@@H]12` [TX63911] was 10 nM. On the same count and under the same terms, the value for `CCCCCCC(=O)N[C@]12CCC(C)(C)C[C@H]1[C@H]1C(=O)C=C3[C@@]4(C)C=C(C#N)C(=O)[C@@H](C)[C@@H]4CC[C@@]3(C)[C@]1(C)CC2` [TX63865] was 9.4 nM. Same read-out and setting: the value for `C[C@@H]1C(=O)C(C#N)=C[C@]2(C)C3=CC(=O)[C@@H]4[C@@H]5CC(C)(C)CC[C@]5(C(=O)NNC=O)CC[C@@]4(C)[C@]3(C)CC[C@@H]12` [TX63785] was 20 nM. Take `C[C@@H]1C(=O)C(C#N)=C[C@]2(C)C3=C[C@@H](O)[C@@H]4[C@@H]5CC(C)(C)CC[C@]5(CO)CC[C@@]4(C)[C@]3(C)CC[C@@H]12` [TX63923]: the IC50 in assay [1] turned out to be 2.5 nM.

In the case of `C[C@@H]1C(=O)C(C#N)=C[C@]2(C)C3=CC(=O)[C@@H]4[C@@H]5CC(C)(C)CC[C@]5(CCC(=O)NCC(F)(F)F)CC[C@@]4(C)[C@]3(C)CC[C@@H]12` [TX63887], the IC50 in assay [1] was determined as 0.8 nM. Same read-out and setting: the value for `C[C@@H]1C(=O)C(C#N)=C[C@]2(C)[C@H]3CC(=O)[C@@H]4[C@@H]5CC(C)(C)CC[C@]5(COCF)CC[C@@]4(C)[C@]3(C)CC[C@@H]12` [TX63860] was 4.1 nM. Regarding `C[C@@H]1C(=O)C(C#N)=C[C@]2(C)C3=CC(=O)[C@@H]4[C@@H]5CC(C)(C)CC[C@]5(C(=O)N(C)C)CC[C@@]4(C)[C@]3(C)CC[C@@H]12` [TX63878], the IC50 in assay [1] amounted to 1.4 nM. In the case of `C[C@@H]1C(=O)C(C#N)=C[C@]2(C)[C@H]3CC(=O)[C@@H]4[C@@H]5CC(C)(C)CC[C@]5(C(=O)NCC(F)(F)F)CC[C@@]4(C)[C@]3(C)CC[C@@H]12` [TX63807], the IC50 in assay [1] was 5.8 nM. As for `CC(C)OC(=O)N[C@]12CCC(C)(C)C[C@H]1[C@H]1C(=O)C=C3[C@@]4(C)C=C(C#N)C(=O)[C@@H](C)[C@@H]4CC[C@@]3(C)[C@]1(C)CC2` [TX63819], the IC50 in assay [1] stood at 2.7 nM. The same measure, in the same setting: the value for `CONC(=O)[C@]12CCC(C)(C)C[C@H]1[C@H]1C(=O)C[C@@H]3[C@@]4(C)C=C(C#N)C(=O)[C@@H](C)[C@@H]4CC[C@@]3(C)[C@]1(C)CC2` [TX63815] was 9.6 nM; that for `CC(=O)OC[C@]12CCC(C)(C)C[C@H]1[C@H]1C(=O)C[C@@H]3[C@@]4(C)C=C(C#N)C(=O)[C@@H](C)[C@@H]4CC[C@@]3(C)[C@]1(C)CC2` [TX63840] was 2.9 nM; that for `C[C@@H]1C(=O)C(C#N)=C[C@]2(C)C3=CC(F)[C@]45OC(=O)[C@@]6(CCC(C)(C)C[C@H]64)CC[C@@]5(C)[C@]3(C)CC[C@@H]12` (stereo partly drawn) [TX63907] was 1.6 nM. On the same count and under the same terms, the value for `C[C@@H]1C(=O)C(C#N)=C[C@]2(C)[C@H]3CC(=O)[C@@H]4[C@@H]5CC(C)(C)CC[C@]5(C(=O)n5ccnc5)CC[C@@]4(C)[C@]3(C)CC[C@@H]12` [TX63811] was 0.3 nM. On the same count and under the same terms, the value for `C[C@@H]1C(=O)C(C#N)=C[C@]2(C)C3=CC(=O)[C@@H]4[C@@H]5CC(C)(C)CC[C@]5(CCCO)CC[C@@]4(C)[C@]3(C)CC[C@@H]12` [TX63918] was 0.5 nM. On to `COC(=O)[C@]12CCC(C)(C)C[C@H]1[C@H]1C(=O)C=C3[C@@]4(C)C=C(C#N)C(=O)[C@@H](C)[C@@H]4CC[C@@]3(C)[C@]1(C)CC2` [TX63435], for which the IC50 in assay [1] was found to be 1 nM. Besides, the fold induction at 0.0625 µM with NQO1-ARE is 7.2.
